The text below walks through data of patent publication US6689806B1, “Indolinone compounds as kinase inhibitors” (Sugen, Inc., priority 1999, dated 2004).

One assay concerns the target EGFR (Homo sapiens, UniProt P00533). Kind of assay: EGF-induced BrdU incorporation assay. Type of assay: cell-based. Also on record: expressed in transfected cells; host or cells: 3T3. As to conditions: 3T3 cells expressing human EGF-R, EGF 2 nM, read-out: BrdU DNA syn. EGFr IC50. The procedure: The cellular/biologic assays described herein measure the amount of DNA made in response to activation of a test kinase, which is a general measure of a proliferative response. The general procedure for this assay is as follows: a compound is introduced to cells expressing the test kinase, either naturally or recombinantly, for some period of time after which, if the test kinase is a receptor, a ligand known to activate the receptor is added. After incubation at least overnight, a DNA labeling reagent such as Bromodeoxy-uridine (BrdU) or 3H-thymidine is added. The amount of labeled DNA is detected with either an anti-BrdU antibody or by measuring radioactivity and is compared to control cells not contacted with a test compound.
EGF-Induced BrdU Incorporation Assay
(8) 3T3 cell line genetically engineered to express human EGF-R.
(1) Cells are seeded at 8000 cells/well in 10% CS, 2 mM Gin in DMEM, in a 96 well plate. Cells are incubated overnight at 37° C. in 5% CO2.
(2) After 24 hours, the cells are washed with PBS, and then are serum starved in serum free medium (0% CS DMEM with 0.1% BSA) for 24 hours.
(3) On day 3, ligand (EGF, 2 nM, prepared in DMEM with 0.1%/BSA) and test compounds are added to the cells simultaneously. The negative control wells receive serum free DMEM with 0.1% BSA only; the positive control cells receive the ligand (EGF) but no test compound. Test compounds are prepared in serum free DMEM with ligand in a 96 well plate, and serially diluted for 7 test concentrations.
(4) After 20 hours of ligand activation, diluted BrdU labeling reagent (1: 100 in DMEM, 0.1% BSA) is added and the cells are incubated with BrdU (final concentration=10 μM) for 1.5 hours.
(10) The absorbance of the samples are measured at 410 nm (in “dual wavelength” mode with a filter reading at 490 nm, as a reference wavelength) on a Dynatech ELISA plate reader.
For orientation: Uptake of a labelled nucleoside into DNA is a usual measure of proliferation.

Another assay has as its target T1, Her2 (Homo sapiens, UniProt P04626).
T1 construct: fused on or other part: P00533 (Epidermal growth factor receptor)
As to the kind of experiment: HER-2 ELISA: EGF receptor-HER2 chimeric receptor assay in whole cells (HER2 kinase). Type of assay: cell-based. The settings on record: NIH3T3 cells with EGFR/HER2 chimeric receptor, phosphotyrosine ELISA. The essentials: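 NIH3T3 cells expressing an EGFR extracellular/HER2 kinase-domain chimera, serum-reduced (0.5%), pretreated 2 h with compound (1% DMSO final), then stimulated 5 min with 100 nM EGF at room temperature. Lysate phosphotyrosine quantified by anti-pTyr ELISA, OD 410 nm; % inhibition after negative-control subtraction.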

Molecules are shown by their SMILES. Like-named read-outs stand apart in the source and are kept apart here.

Sequence of EGFR (P00533 25-1210): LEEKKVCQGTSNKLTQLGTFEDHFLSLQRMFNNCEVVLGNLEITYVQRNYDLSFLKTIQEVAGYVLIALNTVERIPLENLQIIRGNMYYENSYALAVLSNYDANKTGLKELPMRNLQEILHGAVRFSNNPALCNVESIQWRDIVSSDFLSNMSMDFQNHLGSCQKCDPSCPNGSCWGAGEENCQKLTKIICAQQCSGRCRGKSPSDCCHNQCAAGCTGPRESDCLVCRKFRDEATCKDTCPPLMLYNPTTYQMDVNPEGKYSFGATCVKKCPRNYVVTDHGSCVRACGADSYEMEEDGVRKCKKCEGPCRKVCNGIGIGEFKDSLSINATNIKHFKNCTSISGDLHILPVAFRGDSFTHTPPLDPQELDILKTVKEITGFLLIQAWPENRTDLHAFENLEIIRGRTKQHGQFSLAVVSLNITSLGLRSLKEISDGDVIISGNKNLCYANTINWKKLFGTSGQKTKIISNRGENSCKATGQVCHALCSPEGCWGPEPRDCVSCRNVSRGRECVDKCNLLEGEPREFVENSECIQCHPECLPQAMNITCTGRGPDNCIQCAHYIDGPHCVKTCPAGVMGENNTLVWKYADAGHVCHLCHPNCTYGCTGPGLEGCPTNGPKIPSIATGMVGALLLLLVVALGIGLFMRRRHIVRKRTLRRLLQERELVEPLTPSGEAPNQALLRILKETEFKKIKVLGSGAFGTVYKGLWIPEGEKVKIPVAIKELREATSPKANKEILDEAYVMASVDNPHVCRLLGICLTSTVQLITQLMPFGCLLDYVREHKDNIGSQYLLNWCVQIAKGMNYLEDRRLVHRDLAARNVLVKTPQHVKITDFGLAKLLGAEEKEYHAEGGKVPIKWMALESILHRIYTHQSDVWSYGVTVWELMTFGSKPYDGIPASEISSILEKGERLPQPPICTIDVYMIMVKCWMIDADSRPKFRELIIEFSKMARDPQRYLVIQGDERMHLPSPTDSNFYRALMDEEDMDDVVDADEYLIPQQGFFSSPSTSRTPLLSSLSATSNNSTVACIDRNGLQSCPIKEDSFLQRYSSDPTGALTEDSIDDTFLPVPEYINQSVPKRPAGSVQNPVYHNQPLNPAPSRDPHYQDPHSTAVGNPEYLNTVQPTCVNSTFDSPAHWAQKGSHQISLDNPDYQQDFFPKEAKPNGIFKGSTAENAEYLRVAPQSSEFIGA
T1 sequence (P04626 676-1255 limits assumed): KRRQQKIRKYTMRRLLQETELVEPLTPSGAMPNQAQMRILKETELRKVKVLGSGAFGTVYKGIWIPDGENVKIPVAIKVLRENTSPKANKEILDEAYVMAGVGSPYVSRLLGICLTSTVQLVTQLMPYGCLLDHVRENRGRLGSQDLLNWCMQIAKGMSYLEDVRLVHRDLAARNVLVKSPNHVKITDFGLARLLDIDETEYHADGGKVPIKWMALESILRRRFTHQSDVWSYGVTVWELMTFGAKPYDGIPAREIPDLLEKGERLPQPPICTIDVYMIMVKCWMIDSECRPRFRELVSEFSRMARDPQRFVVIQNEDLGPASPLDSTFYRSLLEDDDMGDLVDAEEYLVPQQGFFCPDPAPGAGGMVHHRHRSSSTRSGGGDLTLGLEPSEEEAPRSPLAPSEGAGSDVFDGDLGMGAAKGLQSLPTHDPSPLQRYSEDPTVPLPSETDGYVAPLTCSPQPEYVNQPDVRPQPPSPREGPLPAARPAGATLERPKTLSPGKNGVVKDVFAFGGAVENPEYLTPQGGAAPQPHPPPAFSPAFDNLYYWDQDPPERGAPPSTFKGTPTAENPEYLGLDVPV

Broadly, the IC50 is the concentration needed to halve the response being measured. Regarding `Cc1ccc(O)c(C=C2C(=O)Nc3cccc(CCO)c32)n1` (racemic) [IN-022, 4-(2-Hydroxy-ethyl)-3-(3-hydroxy-6-methyl-pyridin-2-ylmethylene)-1,3-dihydro-indol-2-one], the results for the IC50 at EGFR (Table 7) and at Her2 (Table 7) were > 50 µM and > 100 µM, respectively.

Take `COc1ccc(CC2C(=O)Nc3cc(NC(C)=O)ccc32)cc1-c1cccs1` (stereo not shown) [AAI-6, N-[3-(4-Methoxy-3-thiophen-2-ylbenzyl)-2-oxo-2,3-dihydro-1H-indol-6-yl]-acetamide]: the figures for the IC50 at EGFR (Table 5) and against Her2 (Table 5) were > 50 µM and > 100 µM, respectively.

`CC(=O)Nc1ccc2c(c1)NC(=O)C2Cc1ccc(OCCN2CCOCC2)c(C2CCCCC2)c1` (stereo not shown) [AAI-7, N-{3-[3-Cyclohexyl-4-(2-morpholin-4-ylethoxy)-benzyl]-2-oxo-2,3-dihydro-1H-indol-6-yl}-acetamide]: the IC50 was 28.1 µM at EGFR (Table 5) and > 100 µM at Her2 (Table 5).

With `COc1ccc(CC2C(=O)Nc3ccc(CCN4CCOCC4)cc32)cc1-c1ccsc1` (stereo not shown) [AAI-8, 3-(4-Methoxy-3-thiophen-3-ylbenzyl)-5-(2-morpholin-4-ylethyl)-1,3-dihydroindol-2-one], the IC50 was > 50 µM at EGFR (Table 5) and > 100 µM against Her2 (Table 5).

On to `Cc1cccc2c1C(Cc1ccc3[nH]ccc3c1)C(=O)N2` (stereo not shown) [AAI-16, 3-(1H-Indol-5-ylmethyl)-4-methyl-1,3-dihydroindol-2-one], for which the IC50 at EGFR (Table 5) was > 50 µM; against Her2 (Table 5), > 100 µM.

As to `O=C1Nc2ccccc2C1Cc1ccc2[nH]ccc2c1` (stereo not shown) [AAI-17, 3-(1H-Indol-5-ylmethyl)-1,3-dihydroindol-2-one], the figures for the IC50 at EGFR (Table 5) and on Her2 (Table 5) were > 50 µM and > 100 µM, respectively.

`COc1cccc(-c2ccc3c(c2)NC(=O)C3Cc2[nH]c(C)c(CCCN(C)C)c2C)c1` (stereo not shown) [AAI-21, 3-[4-(3-Dimethylaminopropyl)-3,5-dimethyl-1H-pyrrol-2-ylmethyl]-6-(3-methoxyphenyl)-1,3-dihydroindol-2-one]: the values for the IC50 on EGFR (Table 5) and against Her2 (Table 5) were 27.8 µM and 52.9 µM, respectively.

In the case of `Cc1[nH]c(CC2C(=O)Nc3ccc(Cl)cc32)c(C)c1CCCN(C)C` (stereo not shown) [AAI-23, 5-Chloro-3-[4-(3-dimethylaminopropyl)-3,5-dimethyl-1H-pyrrol-2-ylmethyl]-1,3-dihydroindol-2-one], the IC50 was 32.2 µM at EGFR (Table 5) and 54.1 µM against Her2 (Table 5).

In the case of `O=C1Nc2cc(-c3ccccc3)ccc2C1Cc1cccc(F)c1O` (stereo not shown) [AAI-24, 3-(3-Fluoro-2-hydroxybenzyl)-6-phenyl-1,3-dihydroindol-2-one], the concentration for half-maximal inhibition (IC50) was > 50 µM on EGFR (Table 5) and 26.1 µM on Her2 (Table 5).

For the compound `COc1ccc(CC2C(=O)Nc3cc(-c4ccccc4)ccc32)c(O)c1` (stereo not shown) [AAI-25, 3-(2-Hydroxy-4-methoxybenzyl)-6-phenyl-1,3-dihydroindol-2-one], the figures for the half-inhibitory concentration (IC50) at EGFR (Table 5) and at Her2 (Table 5) were > 50 µM and > 100 µM, respectively.

As to `Cc1cccc(CC2C(=O)Nc3cccc(CCO)c32)n1` (stereo not shown) [AAI-27, 4-(2-Hydroxyethyl)-3-(6-methylpyridin-2-ylmethyl)-1,3-dihydroindol-2-one], the half-inhibitory concentration (IC50) on EGFR (Table 5) is > 50 µM; at Her2 (Table 5) it was > 100 µM.

`O=C1Nc2cccc(CCO)c2/C1=C/c1ccccn1` [IN-005, 4-(2-Hydroxy-ethyl)-3-pyridin-2-ylmethylene-1,3-dihydro-indol-2-one]: the IC50 at EGFR (Table 7) is 3 µM; against Her2 (Table 7) it was 12.9 µM.

For `Cc1[nH]c(/C=C2\C(=O)Nc3cccc(CCOc4cccc(C(C)C)c4)c32)c(C)c1CCCN(C)C` [IN-023], the figures for the IC50 at EGFR (Table 7) and against Her2 (Table 7) were 28.7 µM and > 100 µM, respectively.

Turning to `Cc1[nH]c(/C=C2\C(=O)Nc3cccc(CCOc4ccc(C(C)C)cc4)c32)c(C)c1CCC(=O)O` [IN-024, 3-(5-{4-[2-(4-Isopropyl-phenoxy)-ethyl]-2-oxo-1,2-dihydro-indol-3-ylidenemethyl}-2,4-dimethyl-1H-pyrro-3-yl)-propionic acid], the figures for the IC50 at EGFR (Table 7) and against Her2 (Table 7) were > 50 µM and > 100 µM, respectively.
